Laboratory results from patent publication US9017700B2, “Production of a viable, storable worm egg suspension” (Dr. Falk Pharma GmbH, priority 2008, dated 2015).
Marks after values point to notes of the source that are not given here.

Tests used:
Aspergillus niger [1] = assay: Colony number in TSO samples at pH 4 with preservatives; format: cell-based; settings: 10 000 TSO/ml in phosphate buffer pH 4, 25° C.; for T 1d: 1 day; for T 7d: 7 days
Procedure: (§1) Raising the pH from pH 2 to pH 4 and addition of preservatives Experimental conditions for examples 4a to 4e: […] The following microorganisms were added to the test samples: • Aspergillus niger in the form of an individual microorganism • Pseudomonas aruginosa, Staphylococcus aureus, Candida albicans and Escherichia coli in combination. The incubation temperature was 25° C. The test plates were evaluated after 1 to 7 days.

Candida albicans [2] = assay: as above; format: cell-based; settings: 10 000 TSO/ml in phosphate buffer pH 4, 25° C.; for T 1d: 1 day; for T 7d: 7 days
Procedure: as §1

Escherichia coli [3] = assay: as above; format: cell-based; settings: 10 000 TSO/ml in phosphate buffer pH 4, 25° C.; for T 1d: 1 day; for T 7d: 7 days
Procedure: as §1

Psuedomonas aeruginosa = assay: as above; format: cell-based; settings: 10 000 TSO/ml in phosphate buffer pH 4, 25° C.; for T 1d: 1 day; for T 7d: 7 days
Procedure: as §1

Staphylococcus aureus = assay: as above; format: cell-based; settings: 10 000 TSO/ml in phosphate buffer pH 4, 25° C.; for T 1d: 1 day; for T 7d: 7 days
Procedure: as §1

Penicillium brevicomp. = assay: Microbial count after H2SO4 treatment of inoculated nutrient suspension (test molds); format: cell-based
Aspergillus niger [4] = assay: as above; format: cell-based
Saccharomyces cer. = assay: Microbial count after H2SO4 treatment of inoculated nutrient suspension (test yeasts); format: cell-based
Candida albicans [5] = assay: as above; format: cell-based
[6] = test system: microorganisms in Trichuris suis egg suspension (TSO); assay: Depletion of microorganisms in a T. suis egg suspension (microbial count per DAB 2.6.12); format: cell-based; settings: TSO 2400 eggs/ml rebuffered to pH 2; after storage for 3 h at 30° C.
Procedure: The microbial count in a Trichuris suis egg suspension (TSO) in phosphate buffer (pH 7) at a concentration of 2400 eggs/ml was determined as specified in the DAB (German Pharmacopoeia, section 2.6.12, last updated with the 24th Supplement in 2006). […] This suspension was then rebuffered to pH 2 in dilute H2SO4 solution.

Clostridium sporog. = assay: Microbial count after H2SO4 treatment of inoculated nutrient suspension (test bacteria); format: cell-based; settings: pH 2, 6 h at 30° C.
[7] = test system: murine leukemia virus (MuLV); format: cell-based; settings: pH 2, 30° C., with TSO; after 10 min
pseudorabies virus (PRV) = format: cell-based; settings: pH 2, 30° C., with TSO; after 10 min
porcine parvovirus (PPV) = format: cell-based; settings: pH 2, 30° C., with TSO; after 3 h
feline calicivirus (FCV) = format: cell-based; settings: pH 2, 30° C., with TSO; after 3 h
Bacillus subtilis = assay: Microbial count after H2SO4 treatment of inoculated nutrient suspension (test bacteria); settings: pH 2, 6 h at 30° C.
Escherichia coli [8] = assay: as above; settings: pH 2, 6 h at 30° C.
Staphylococus aureus = assay: as above; settings: pH 2, 6 h at 30° C.
Salmonella typhymurium = assay: as above; settings: pH 2, 6 h at 30° C.

Row | SMILES | T 1d (Aspergillus niger [1]) | T 7d (Aspergillus niger [1]) | T 0 (Aspergillus niger [1]) | T 1d (Candida albicans [2]) | T 7d (Candida albicans [2]) | T 0 (Candida albicans [2]) | T 1d (Escherichia coli [3]) | T 7d (Escherichia coli [3]) | T 0 (Escherichia coli [3]) | T 1d (Psuedomonas aeruginosa) | T 7d (Psuedomonas aeruginosa) | T 0 (Psuedomonas aeruginosa) | T 1d (Staphylococcus aureus) | T 7d (Staphylococcus aureus) | T 0 (Staphylococcus aureus) | further results
1 | O=C(O)c1ccccc1 [Benzoic acid 0.2%, Benzoic acid] | 90 cfu/ml | <10 cfu/ml | 120 000 cEu/ml | <10 cfu/ml | <10 cfu/ml | 240 000 cfu/ml | <10 cfu/ml | <10 cfu/ml | 140 000 cfu/ml | <10 cfu/ml | <10 cfu/ml | 180 000 cfu/ml | <10 cfu/ml | <10 cfu/ml | 130 000 cfu/ml | –
2 | O=S(=O)(O)O [H2SO1 pH 0, H2SO4] | – | – | – | – | – | – | – | – | – | – | – | – | – | – | – | microbial count T3h H2SO1 pH 0 (Penicillium brevicomp.; pH 0, 3 h at 25° C.): 70 cfu; microbial count T48h H2SO1 pH 0 (Penicillium brevicomp.; pH 0, 48 h at 25° C.): <10 cfu; microbial count T3h H2SO1 pH 0 (Aspergillus niger [4]; pH 0, 3 h at 25° C.): 50 cfu; microbial count T48h H2SO1 pH 0 (Aspergillus niger [4]; pH 0, 48 h at 25° C.): <10 cfu
3 | O=S(=O)(O)O [H2SO4 pH 1, H2SO4] | – | – | – | – | – | – | – | – | – | – | – | – | – | – | – | microbial count T3h H2SO4 pH 1 (Saccharomyces cer.; pH 1, 3 h at 25° C.): 39 000 cfu; microbial count T48h H2SO4 pH 1 (Saccharomyces cer.; pH 1, 48 h at 25° C.): 40* cfu; microbial count T3h H2SO4 pH 1 (Candida albicans [5]; pH 1, 3 h at 25° C.): 26 000 cfu; microbial count T48h H2SO4 pH 1 (Candida albicans [5]; pH 1, 48 h at 25° C.): <10 cfu; microbial count T3h H2SO4 pH 1 (Penicillium brevicomp.; pH 1, 3 h at 25° C.): 39 000 cfu; microbial count T48h H2SO4 pH 1 (Penicillium brevicomp.; pH 1, 48 h at 25° C.): 14 000 cfu; microbial count T3h H2SO4 pH 1 (Aspergillus niger [4]; pH 1, 3 h at 25° C.): 500 000 cfu; microbial count T48h H2SO4 pH 1 (Aspergillus niger [4]; pH 1, 48 h at 25° C.): 500 000 cfu
4 | O=S(=O)(O)O [H2SO4 pH 2, H2SO4] | – | – | – | – | – | – | – | – | – | – | – | – | – | – | – | microbial count [6]: < 20 cfu/ml; microbial count, H2SO4 pH 2 after 6 h (Clostridium sporog.): <10 colony-forming units; microbial count T3h H2SO4 pH 2 (Saccharomyces cer.; pH 2, 3 h at 25° C.): 380 000 cfu; microbial count T48h H2SO4 pH 2 (Saccharomyces cer.; pH 2, 48 h at 25° C.): 220 000 cfu; microbial count T3h H2SO4 pH 2 (Candida albicans [5]; pH 2, 3 h at 25° C.): 380 000 cfu; microbial count T48h H2SO4 pH 2 (Candida albicans [5]; pH 2, 48 h at 25° C.): 32 000 cfu; microbial count T3h H2SO4 pH 2 (Penicillium brevicomp.; pH 2, 3 h at 25° C.): 90 000 cfu; microbial count T48h H2SO4 pH 2 (Penicillium brevicomp.; pH 2, 48 h at 25° C.): 32 000 cfu; microbial count T3h H2SO4 pH 2 (Aspergillus niger [4]; pH 2, 3 h at 25° C.): 370 000 cfu; microbial count T48h H2SO4 pH 2 (Aspergillus niger [4]; pH 2, 48 h at 25° C.): 700 000 cfu; viral activity [7]: no longer infectious; viral activity (pseudorabies virus (PRV)): no longer infectious; viral activity (porcine parvovirus (PPV)): no longer infectious; viral activity (feline calicivirus (FCV)): no longer infectious; microbial count, H2SO4 pH 2 after 6 h (Bacillus subtilis): 20* colony-forming units; microbial count, H2SO4 pH 2 after 6 h (Escherichia coli [8]): <10 colony-forming units; microbial count, H2SO4 pH 2 after 6 h (Staphylococus aureus): <10 colony-forming units; microbial count, H2SO4 pH 2 after 6 h (Salmonella typhymurium): <10 colony-forming units
5 | CC(O)CO (stereo not shown) [Propylene glycol 15%, Propylene glycol] | 30 000 cfu/ml | 9000 cfu/ml | 120 000 cEu/ml | 8600 cfu/ml | 30 cfu/ml | 240 000 cfu/ml | 7100 cfu/ml | <10 cfu/ml | 140 000 cfu/ml | 10 cfu/ml | <10 cfu/ml | 180 000 cfu/ml | 14 000 cfu/ml | <10 cfu/ml | 130 000 cfu/ml | –
6 | C/C=C/C=C/C(=O)O [Sorbic acid 0.1%, Sorbic acid] | 20 000 cfu/ml | <10 cfu/ml | 120 000 cEu/ml | 190 cfu/ml | <10 cfu/ml | 240 000 cfu/ml | 490 cfu/ml | <10 cfu/ml | 140 000 cfu/ml | 30 cfu/ml | <10 cfu/ml | 180 000 cfu/ml | 240 cfu/ml | <10 cfu/ml | 130 000 cfu/ml | –
7 | [K+].[K+].[O]=[Cr](=[O])([O-])[O][Cr](=[O])(=[O])[O-] [potassium dichromate] | – | – | – | – | – | – | – | – | – | – | – | – | – | – | – | cytotoxicity (indicator cells): cytotoxicity
